Experimental data published in US9682931B2, “Aryloyl(oxy or amino)pentafluorosulfanylbenzene compound, pharmaceutically acceptable salt thereof, and prodrugs thereof” (UBE INDUSTRIES, LTD., priority 2013, dated 2017).
≈ marks a conversion by molar mass, not a printed value.

System: Hep G2 (liver cancer)
Assay: Evaluation of anticancer action, cell proliferation inhibition (WST-8), Hep G2
Format: cell-based
Details: Homo sapiens, HepG2, Hep G2, about 72 hours
From the text: The cell proliferation inhibitory effects of a test substance (Compound 3) on various types of cancer cells were examined.
1. Measuring Reagent and Analysis Software
WST-8 Kit (Cat. No. 260-96165 or 260-96162; manufactured by Kishida Chemical Co., Ltd.) for counting cell number
Software for graph making and measurement of GI50 value: XLfit 5.2 (ID Business Solutions Ltd.)
2. Cells and Culture Conditions
Five types of cells and medium (the following Table) were used. The cells were obtained from the Research Resource Bank of the Human Sciences Foundation.
On the day when a sample was to be added, the sample was weighed and a medium for each type of cells was added so as to be 500 μg/mL. Sonication was performed while warming at 37° C. for 60 minutes to be dissolved. Then, filtration was performed by a 0.22 m-filter. The 500 μg/mL-solution was diluted with the medium for each type of cells to prepare 200 μg/mL, 60 μg/mL, 20 μg/mL, 6 μg/mL, 2 μg/mL, 0.6 μg/mL and 0.2 μg/mL solutions, which were specified as two-fold concentration test solutions (the final concentrations of the test substance were 250 µg/mL, 100 μg/mL, 30 μg/mL, 10 μg/mL, 3 μg/mL, 1 μg/mL, 0.3 μg/mL, […], respectively). […]
(8) Absorbance values at 450 nm and 650 nm were measured to calculate O.D. 450 and O.D. 650. […]
ODdrug-exposed wells: absorbance of a well containing a sample […]

## O=C(Nc1ccc(S(F)(F)(F)(F)F)cc1)c1cc(O)c(O)c(O)c1 [Compound 3, 4-(3,4,5-trihydroxybenzoylamino)pentafluorosulfanylbenzene]
  GI50: 9.8 µg/mL (≈ 26.4 µM)
